# Results as given in patent US7030081B2 (S.I.S.S.A.- Scuola Internazionale Superiore di Studi …, priority 2000, dated 2006).
# “And” between values parts separate entries of the source, which are not always exact repeats. Equal values may be shown once. “Also recorded” adds a separate entry of the source. No end group written: not given here.
# How the values were obtained:
# [1] = system: nAChRs of rat chromaffin cells; test: Patch-clamp recording of nicotine-induced currents in cultured rat chromaffin cells; assay type: cell-based; settings: for effect on nicotine dose response curve: 1 μM peptide or 0.5 μM physostigmine; for depression (reduction) of the response to nicotine: 5 μM physostigmine, 0.1 mM nicotine
# Procedure: Cultures of rat chromaffin cells were prepared according to the Brandt method (Brandt et al., 1976, Giniatullin et al., 1999, Khirough et al., 1997, 1998). 25–35 day old rats were anaesthetized by increasing CO2 levels and then their adrenal glands were removed. The medullary part was separated from the cortical portion of the gland in buffer solution (pH 7.2) containing (mM): NaCl 137, KCl 3, Na2HPO4 0.7, HEPES 25, glucose 10 and 350 U ml^−1 of penicillin and streptomycin.
# Cells were successively dissociated from fragments of medullary tissue at 37° C. over about 60 min, by passing them through a Pasteur pipette at 15 min intervals, and by enzymatic treatment with collagenase A and DNAse I (0.5 U ml^−1 and 10 μgml^−1). The cell containing suspension was then centrifuged at 700 rpm for 5 min and washed twice in HEPES buffered medium. The cells, after re-suspension in DMEM culture medium (Dulbecco's modified Eagle's medium) with addition of 10% FCS (calf fetal serum), were plated on poly-lysine (5 mg/ml)-pretreated Petri dishes and cultured at 37° C. for 1–2 days in 5% CO2 containing atmosphere.
# (§1) Dishes containing cultured cells (used from 0 to 3 days after their preparation) were placed on an inverted Nikon DIAPHOT™ microscope and continuously superfused (5–10 ml/min) with control saline containing (mM): NaCl 135, KCl 5, MgCl2 1, CaCl2 2, glucose 15, HEPES 10 (pH 7.4 with addition of […]; 285 mOsm osmolarity). The patch pipettes, obtained from glass capillary tubes (1.5 mm o.d.) had 5–6 MΩ resistance when filled with intracellular solution containing: (mM) CsCl 120; HEPES 20; MgCl2 1; Mg2ATP3 3, BAPTA 10 (240 mOsm). The pH of the intracellular solution was adjusted to 7.2 with CsOH. Unless otherwise specified, all recordings were carried out at −70 mV membrane potential. After obtaining whole-cell configuration (Hamill et al. 1981), each cell was stabilized for […] period, after which membrane ionic currents, mediated by nAChR activation, were recorded, filtered at 1 kHz, and stored in a PC for subsequent analysis with the pCLAMP 6.04 program (Axon Instruments Inc., Foster City, Calif.).
# nAChR agonists were administered to single cells by a pressure system from a micropipette containing a relatively concentrated solution and placed at […] distance from the recorded cell. […] This method allows very rapid administration of a chemical substance with a few ms latency to observe a cell response. For application of antagonists, test compounds and control solution we used a rapid superfusion system (Bio-logic, France) consisting of an array of glass capillary tubes (0.8 mm o.d.) which, through rapid rotation, generate solution flow onto the treated cell. In this case the exchange time between two solutions is about 50 ms.
# [2] = system: nAChRs; settings: Giniatullin et al.; cited from earlier work
# [3] = target: T1, muscle-type nicotinic receptors (Mus musculus, UniProt P02716+P04756+P09690); test: Patch-clamp recording of nicotinic currents in cultured muscle cells (myotubes, I28); assay type: cell-based
# T1 construct: nicotinic currents recorded from cultured muscle cells (myotubes, I28); endogenous in cells; host or cells: I28 myotubes
# Procedure: A set of experiments was carried out using […] which represent myotubes and therefore contain muscle-type nicotinic receptors. For this purpose the cells were prepared according to method by Irintchev et al. (1997).
# as §1
# To this end we studied whether this peptide could affect nicotinic currents recorded from cultured muscle cells (myotubes, I28). These cells were kept at −60 mV potential by the patch electrode.
# [4] = 1 μM peptide, nicotine 0.1 mM, 20 ms pulse
# T1 sequence (P04756 21-457): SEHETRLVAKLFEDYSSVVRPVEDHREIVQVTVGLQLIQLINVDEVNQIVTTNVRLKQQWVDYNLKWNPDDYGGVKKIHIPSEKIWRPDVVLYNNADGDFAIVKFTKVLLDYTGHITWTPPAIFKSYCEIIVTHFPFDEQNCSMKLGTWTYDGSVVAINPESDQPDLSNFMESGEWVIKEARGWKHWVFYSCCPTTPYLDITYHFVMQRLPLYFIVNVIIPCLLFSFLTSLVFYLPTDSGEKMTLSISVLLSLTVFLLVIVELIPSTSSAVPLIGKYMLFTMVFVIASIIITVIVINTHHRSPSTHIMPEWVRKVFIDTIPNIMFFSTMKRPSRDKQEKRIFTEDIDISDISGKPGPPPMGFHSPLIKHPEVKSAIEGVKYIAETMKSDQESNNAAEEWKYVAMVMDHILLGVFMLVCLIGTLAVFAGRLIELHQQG
# T1 sequence (P09690 24-501): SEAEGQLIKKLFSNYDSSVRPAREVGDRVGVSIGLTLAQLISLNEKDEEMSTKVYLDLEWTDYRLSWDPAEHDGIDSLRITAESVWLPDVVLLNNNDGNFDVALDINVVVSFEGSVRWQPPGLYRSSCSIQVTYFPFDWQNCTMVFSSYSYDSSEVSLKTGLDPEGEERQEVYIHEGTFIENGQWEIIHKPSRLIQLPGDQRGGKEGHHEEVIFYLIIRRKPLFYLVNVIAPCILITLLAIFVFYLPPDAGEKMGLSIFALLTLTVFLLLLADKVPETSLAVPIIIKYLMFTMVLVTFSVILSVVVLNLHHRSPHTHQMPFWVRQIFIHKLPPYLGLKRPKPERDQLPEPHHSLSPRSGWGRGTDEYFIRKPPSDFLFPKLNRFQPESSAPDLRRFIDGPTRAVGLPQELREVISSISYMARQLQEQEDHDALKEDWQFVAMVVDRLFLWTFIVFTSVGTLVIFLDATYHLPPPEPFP
# T1 sequence (P02716 25-520): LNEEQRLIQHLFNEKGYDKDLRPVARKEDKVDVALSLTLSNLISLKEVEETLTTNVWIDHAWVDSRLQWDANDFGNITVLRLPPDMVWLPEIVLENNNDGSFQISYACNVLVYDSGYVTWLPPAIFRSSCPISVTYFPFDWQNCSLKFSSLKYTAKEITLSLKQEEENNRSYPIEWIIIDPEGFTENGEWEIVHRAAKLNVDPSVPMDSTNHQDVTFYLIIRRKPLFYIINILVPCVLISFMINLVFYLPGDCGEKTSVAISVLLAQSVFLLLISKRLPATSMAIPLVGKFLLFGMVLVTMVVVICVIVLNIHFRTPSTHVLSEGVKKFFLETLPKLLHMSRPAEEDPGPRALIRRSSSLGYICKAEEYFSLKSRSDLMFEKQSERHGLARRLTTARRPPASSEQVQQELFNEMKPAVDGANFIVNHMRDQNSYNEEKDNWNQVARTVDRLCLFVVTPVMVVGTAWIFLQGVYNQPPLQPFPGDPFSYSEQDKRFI
# T1 sequence (P04760 23-519 partner): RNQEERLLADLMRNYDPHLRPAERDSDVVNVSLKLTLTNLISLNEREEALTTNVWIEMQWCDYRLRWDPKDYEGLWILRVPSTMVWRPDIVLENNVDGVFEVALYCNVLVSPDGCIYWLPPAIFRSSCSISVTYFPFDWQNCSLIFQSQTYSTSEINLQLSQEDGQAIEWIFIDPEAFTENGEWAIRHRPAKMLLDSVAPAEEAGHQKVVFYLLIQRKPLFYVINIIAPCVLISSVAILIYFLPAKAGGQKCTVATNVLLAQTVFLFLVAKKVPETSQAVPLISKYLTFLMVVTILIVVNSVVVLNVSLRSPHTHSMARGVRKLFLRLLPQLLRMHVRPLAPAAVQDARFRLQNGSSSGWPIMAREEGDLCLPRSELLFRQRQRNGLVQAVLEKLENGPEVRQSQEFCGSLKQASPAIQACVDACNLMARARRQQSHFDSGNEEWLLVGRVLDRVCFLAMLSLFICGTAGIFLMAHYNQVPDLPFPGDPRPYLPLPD
compound,measurement,setting,value
"SCNTATC (cysteine pairing not given here) [CGRP 1-7, reference compound]",inhibition of nicotine currents,[1]; 1 μM peptide,42%
same,action on nAChRs reported earlier (in words),[2],"rapidly developing, competitive antagonism readily reversible on wash"
"SCNTATA [CGRP 1-7A, Cys7 replaced with Ala]",wash time for reversal of enhancement,[1]; 1 μM peptide,about 1 min
same,effect on nicotine dose response curve,[1],significantly shifted to left without increase in the maximum response
same,enhancement of nicotine induced currents,[1]; [4],17±4%
same,enhancement of nicotine induced currents,"[1]; 1 μM peptide, nicotine 0.1 mM, 20 ms pulse, listed as 1-7A",18%
same,enhancement of nicotine induced currents,"[1]; 1 μM peptide, nicotine 0.1 mM, 20 ms pulse, listed as CGRP 1-7 A",about 18%
SCNTAT [CGRP 1-6],effect on muscle-type nicotinic receptor responses (in words),[3],did not modify the muscle-type nicotinic receptor responses
same,amplitude of nicotine responses as % of the controls,"[3]; 1 μM CGRP 1-6 pre-applied for 2 minutes, nicotine 100 μM, −60 mV",101±2%
same,potentiation of nicotine current at threshold,"[1]; 0.1 μM peptide, nicotine 20 ms, 0.1 mM",105±7%
same,nicotine currents (fraction of control) on concurrent application of CGRP 1-6 and CGRP 1-7,[1]; 1 μM concentration of both,99±4%
same,application time after which enhancement is observed,[1]; 1 μM peptide,≤ 5 s
same,wash time for reversal of enhancement,[1]; 1 μM peptide,about 1 min
same,effect on nicotine dose response curve,[1],shifted to the left in a parallel fashion without modification of the maximum response
same,effect on maximal currents (saturating nicotine pulse),"[1]; 1 μM peptide, 200 ms nicotine pulse",absent; also recorded: not modified
same,enhancement of nicotine induced currents,[1]; [4],31% and 31±7% and 21±4%
same,maximum value of potentiation of nicotine current,"[1]; 50 μM peptide, nicotine 20 ms, 0.1 mM",156±6%
same,enhancement with combined application of CGRP 1-6 and physostigmine,[1]; CGRP 1-6 1 μM + physostigmine 0.5 μM,37±6%
same,washout time for current to return to the initial value,[1]; FIG. 3C,45 to 60 s
same,enhancement with cytisine as agonist,"[1]; cytisine 20 ms, 0.1 mM",enhancing effect was exerted also when nAChRs were activated by cytisine
same,CGRP 1-6 enhancing action threshold value,"[1]; nicotine 0.1 mM, 20 ms, 0.05–100 μM tested",0.1 µM
same,nicotine currents as % of the control with physostigmine plus CGRP 1-6,[1]; physostigmine 5 μM + CGRP 1-6 1 μM,79±1%
same,direct action in the absence of agonist,"[1]; resting membrane conductance, baseline current",not associated with any direct action
same,dependence of enhancing action on membrane potential,"[1]; −40, −70 and −100 mV",independent from the membrane potential
"CNC(=O)Oc1ccc2c(c1)[C@]1(C)CCN(C)[C@@H]1N2C [physostigmine, reference compound]",depression (reduction) of the response to nicotine,[1]; 20 ms,48±5%
same,depression (reduction) of the response to nicotine,"[1]; 20 ms, listed as phystigmine",77±1%
"CN1CCCC1c1cccnc1 (stereo not drawn) [Nicotine, nicotine, reference compound]",EC50,[3],100 µM
Ser-Cys-Asn-Thr-Ala (SCNTA; listed as Homo sapiens) [CGRP 1-5],enhancement of nicotine induced currents,[1]; 10 μM peptide,26±4%
Ser-Cys-Asn-Thr (SCNT; listed as Homo sapiens) [CGRP 1-4],enhancement of nicotine induced currents,[1]; [4],8±1%
same,action of fragment on nicotinic currents (in words),[1]; FIG. 5B,modest enhancing effect
